Laboratory results published in patent US20230257385A1, “SALT AND SOLID FORMS OF TABERNANTHALOG” (priority 2021, published 2023).

Assays:
[1] = SIF buffer solubility panel (FaSSIF, FeSSIF, FaSSGF); assay type: physicochemical; settings: 37° C., up to 24 h (timepoints t=0, 1 h, 3 h, 6 h, 24 h)
[2] = DVS 0 to 90 to 0% RH (mass equilibrated); assay type: physicochemical
[3] = Amorphous study (freeze drying, evaporation, spray drying, bead milling) of monofumarate and sorbate; assay type: physicochemical; settings: 50 mg
Source text: The purpose of this study was to generate amorphous material to be characterized and used in water activity studies. To achieve this, the two salts were exposed to a variety of techniques in attempts to generate the amorphous forms, including freeze drying, evaporation, vacuum desiccation and cryodesiccation spray drying. These techniques were not successful for the two salts Tabernanthalog·Monofumarate and Tabernanthalog·Sorbate.
Bead milling was attempted to generate the amorphous form of Tabernanthalog·Sorbate (Tabernanthalog·Sorbate, Form A). The salt underwent neat milling and separately with the addition of tetradecafluorohexane (TDFH). The following experiments were performed: Experiment 6-Sample A1 (30 Hz, 2 h), Experiment 6-Sample A2 (30 Hz, 5.5 h) and Experiment 6-Sample A3 (30 Hz 1 h, TDFH), the products from each experiment was analysed by XRPD to determine the extent of crystallinity (FIG. 812). None of the experiments provided amorphous material.
Each salt was charged to a 7 ml vial (50 mg, 1.0 wt). To the vial containing Tabernanthalog·Monofumarate (Tabernanthalog·Monofumarate), was charged water (10.0 vol), to fully dissolve the sample. Tabernanthalog·Sorbate (A1270-076-A1) was taken-up in ethanol/water (15% v/v, 10 vol), a further charge of water (1.0 ml), was added to ensure that the sample dissolved.
Vials containing the salt solutions were placed on the freeze drier apparatus overnight, and the cryo-desiccated products were recovered the following morning and analysed by XRPD each product remained crystalline.
Tabernanthalog·Monofumarate (A1272−082-A2, 51.1 mg, 1.0 wt) was charged to a 7 ml scintillation vial followed by THE (2 ml, […]), the suspension was heated to 50° C., until full dissolution was observed. The vial was stoppered by foil and a pin hole was pierced in the top. The vial was located under a steady N2 stream.
Tabernanthalog·Sorbate (A1270−076-A1, 99.4 mg, 1.0 wt) was charged to a 7 ml scintillation vial, followed by hexafluoroisopropanol (HFIPA, 5.0 vol, 0.5 ml), after which, the sample fully dissolved. The cap was replaced by foil and pierced on the top. Solvent was allowed to evaporate, to afford a dry, brown solid that was analysed by XRPD yielding crystalline pattern #7. Sample were dried under N2 stream for 5 h and reanalysed by XRPD, remaining as pattern #7
Tabernanthalog·Sorbate (A1270−076-A1, 50.0 mg, 1.0 wt) was charged to a 7 ml scintillation vial followed by hexafluoroisopropanol (HFIPA, 0.5 ml, 10 vol), to yield a clear solution. The solution was concentrated to dryness, by rotary evaporation, yielding an oil, that was allowed to stand undisturbed overnight.
Tabernanthalog·Sorbate (A1270−076-A1, 50.0 mg, 1.0 wt) was charged to a 7 ml scintillation vial, followed by methanol (300 μl, 6.0 vol). The solution was clarified by filtration into a 7 ml scintillation vial, containing diethyl ether (1.0 ml, 20.0 vol).
Tabernanthalog·Sorbate (A1270−076-A1, 102 mg, 1 wt) was charged to a 7.0 ml scintillation vial followed by methanol (1.9 ml, 19.0 vol). The solution was loaded into the spray drier apparatus.
The procedure yielded a brown powder (30 mg, 30% th.).
Tabernanthalog·Sorbate (A1270-076-A1, Form A) was charged to a 1.5 ml steel milling-vessel with a single 5 mm ball bearing. The sample was milled for 5.5 h at 30 Hz and yielded an off-white powder, that was analysed by XRPD, no change in crystallinity.

[4] = Thermal study: glass transition temperature (Tg) of amorphous monofumarate and sorbate; assay type: physicochemical
Description: Each salt was analysed by DSC and TGA to determine the Tg of the amorphous form. Amorphous forms were generated by thermocycling the salt past the melt temperature, cooling the sample, and once cooled the samples were reheated. Open pan and sealed pan DSC were utilised, open pan DSC were heated past the melt event, cooled, and left to stand under ambient conditions overnight.
Sealed pans were immediately cycled with no time left to stand.
TGA (open pan) samples were analysed by thermocycle, with no time for the sample to stand under ambient conditions.
The amorphous forms were generated in these studies and characterised with their Tg being measured.
A hot stage microscope heating block was used to generate the amorphous phase in-situ, to allow analysis by XRPD. A silicon XRPD sample plate was loaded with the appropriate salt. The plate was heated past the melt event, removed from the hot stage microscope block and cooled to ambient in air and analysed by XRPD to ensure that the amorphous form was generated. The amorphous material was then analysed by ^1H NMR and LC-MS to ensure there was no change in chemical composition.
Two DSC pans were charge with the appropriate salt (Tabernanthalog·Sorbate, A1270−076-A1 and Tabernanthalog·Monofumarate, Tabernanthalog·Monofumarate), the first DSC pan was not sealed (open pan DSC), the second was sealed (hermetic sealed pan DSC). The open pan DSC was cycled from 20° C. to just after the melt event for each, cooled to −20° C. and left to stand under ambient conditions over night. The open pan DSC was then heated to just before the thermal degradation event (Tabernanthalog·Sorbate ca. 160° C., Tabernanthalog·Monofumarate ca. 210° C.) The hermetic sealed DSC was heated from 20° C. to just after the melt event, cooled to −20° C. then headed to just before the same degradation event.
Two TGA crucibles were charged with the appropriate salt (Tabemanthalog·Sorbate, A1270-076-A1, Tabernanthalog·Monofumarate, Tabernanthalog·Monofumarate), both were thermocycled from 20° C. to past the melt event and then cooled to −20° C., each pan was then immediately heated to just before the degradation event to measure the Tg event.

[5] = Dynamic vapour sorption (DVS) of selected salts (Example 8); assay type: physicochemical; settings: 0 to 90 to 0% RH, 25° C., dm/dt 0.002%/min
Description: DVS: The moisture sorption properties of the feed API were analyzed by DVS Intrinsic instrument (Surface Measurement System). Approximately 20-50 mg of API was weighed on an aluminum pan and loaded into the instrument equilibrated at 25° C. The sample was allowed to equilibrate under dry atmosphere (0% relative humidity) for 60 minutes before increasing the humidity from 0% to 30% at 5% step increment and from 30% to 90% at 10% step increment. A desorption cycle was also applied from 90% to 30% (10% step) and from 30% to 0% (5% decrement). A rate of change in mass per time unit (dm/dt) of 0.002%/min was set as the equilibrium parameter. Kinetic and isotherm graphs were calculated.

[6] = Equilibrium humidity evaluation 75% RH/40° C., 10 days (Example 8, Experiment 6); assay type: physicochemical
Description: The experimental procedure that accompany this experiment is provided in Section G.ii.
All forms were maintained under constant equilibrium humidity (75% RH). XRPD, DSC, TGA, PLM and ^1H NMR analyses were performed on the absorbents at t=5 d and t=10 d, to confirm their physical fates and to determine the extent of residual solvent exchange or sequestration.
100 mg portions of Tabernanthalog salts ([…]) were placed in the relevant open vials. The powders were finely divided and distributed evenly over the base of the vial, such that equal material coverage across the panel was observed. These samples were then maintained 40° C. under 75% RH. The samples were sub-sampled at intervals of 5 and 10 days and analyzed by ^1H NMR, HPLC, XRPD, DSC, TGA and PLM, for evidence of phase change or chemical degradation.

[7] = Solubility determinations in SIF buffers FaSSIF, FeSSIF, FaSSGF (Example 8, Experiment 5)
Description: The temperature was maintained at 37° C. for 24 h. […] The suspensions were sampled at the relevant time points and centrifuged. The centrifuged pellets, obtained at the time points were analysed by XRPD as a wet pellet and dried, for evidence of form change.
The temperature was maintained at 37° C. for 24 h.
The suspension was sampled at the relevant time points and centrifuged. […] The centrifuged pellets, obtained at the time points were analyzed by XRPD as a wet pellet and dried, for evidence of form change.

[8] = Amorphisation activity: Crash cool
[9] = Amorphisation activity: Freeze dry
[10] = each timepoint up to 24 h, 37° C.

Compound: COc1ccc2c3c([nH]c2c1)CCN(C)CC3 [Pattern #6a (Form A)]
- solubility in FaSSGF [1]: soluble
- solubility in FaSSIF [1]: soluble
- solubility in FeSSIF [1]: soluble
- DVS 0 to 90 to 0% RH (dm/dt <0.002%) ([2]; desorption, 0.0% RH): 0.0381%
- DVS 0 to 90 to 0% RH (dm/dt <0.002%) ([2]; desorption, 5.0% RH): 0.1179%
- DVS 0 to 90 to 0% RH (dm/dt <0.002%) ([2]; desorption, 10.0% RH): 0.1551%
- DVS 0 to 90 to 0% RH (dm/dt <0.002%) ([2]; desorption, 15.0% RH): 0.1857%
- DVS 0 to 90 to 0% RH (dm/dt <0.002%) ([2]; desorption, 20.0% RH): 0.2126%
- DVS 0 to 90 to 0% RH (dm/dt <0.002%) ([2]; desorption, 25.0% RH): 0.2387%
- DVS 0 to 90 to 0% RH (dm/dt <0.002%) ([2]; desorption, 30.0% RH): 0.2656%
- DVS 0 to 90 to 0% RH (dm/dt <0.002%) ([2]; desorption, 40.0% RH): 0.3210%
- DVS 0 to 90 to 0% RH (dm/dt <0.002%) ([2]; desorption, 50.0% RH): 0.3797%
- DVS 0 to 90 to 0% RH (dm/dt <0.002%) ([2]; desorption, 60.0% RH): 0.4515%
- DVS 0 to 90 to 0% RH (dm/dt <0.002%) ([2]; desorption, 70.0% RH): 0.5442%
- DVS 0 to 90 to 0% RH (dm/dt <0.002%) ([2]; desorption, 80.0% RH): 0.6827%
- DVS 0 to 90 to 0% RH (dm/dt <0.002%) ([2]; desorption, 90.0% RH): 0.9766%
- DVS 0 to 90 to 0% RH (dm/dt <0.002%) ([2]; sorption, 0.0% RH): 0.0004%
- DVS 0 to 90 to 0% RH (dm/dt <0.002%) ([2]; sorption, 5.0% RH): 0.0627%
- DVS 0 to 90 to 0% RH (dm/dt <0.002%) ([2]; sorption, 10.0% RH): 0.0957%
- DVS 0 to 90 to 0% RH (dm/dt <0.002%) ([2]; sorption, 15.0% RH): 0.1397%
- DVS 0 to 90 to 0% RH (dm/dt <0.002%) ([2]; sorption, 20.0% RH): 0.1778%
- DVS 0 to 90 to 0% RH (dm/dt <0.002%) ([2]; sorption, 25.0% RH): 0.2093%
- DVS 0 to 90 to 0% RH (dm/dt <0.002%) ([2]; sorption, 30.0% RH): 0.2401%
- DVS 0 to 90 to 0% RH (dm/dt <0.002%) ([2]; sorption, 40.0% RH): 0.3145%
- DVS 0 to 90 to 0% RH (dm/dt <0.002%) ([2]; sorption, 50.0% RH): 0.4051%
- DVS 0 to 90 to 0% RH (dm/dt <0.002%) ([2]; sorption, 70.0% RH): 0.5451%
- DVS 0 to 90 to 0% RH (dm/dt <0.002%) ([2]; sorption, 80.0% RH): 0.6660%
- DVS 0 to 90 to 0% RH (dm/dt <0.002%) ([2]; sorption, 90.0% RH): 0.9766%

Compound: COc1ccc2c3c([nH]c2c1)CCN(C)CC3.O=C(O)/C=C/C(=O)O [Tabernanthalog•Monofumarate]
- Form by XRPD [3, 8]: Pattern #3
- Outcome [3, 8]: Crystalline
- Form by XRPD [3, 9]: Pattern #1
- Outcome [3, 9]: Crystalline
- Form by XRPD ([3]; Amorphisation activity: THF/N2): Pattern #11
- Outcome ([3]; Amorphisation activity: THF/N2): Crystalline
- Outcome ([4]; Hot plate heat up, sorbate 20 to 170 ° C., monofumarate 20 to 210 ° C.): Amorphous
- Outcome ([4]; Hot stage plate heat up, sorbate 20 to 170 ° C., monofumarate 20 to 210 ° C.): Almost Amorphous
- Outcome ([4]; Open Pan DSC, sorbate 20 to 165 to −20, O/N 20 to 230 ° C., monofumarate 20 to 210 to −20, O/N 20 to 210 ° C.): Amorphous
- Outcome ([4]; Sealed DSC, sorbate 20 to 165 to −20 to 230 ° C., monofumarate 20 to 210 to −20 to 210 ° C.): Amorphous
- Outcome ([4]; TGA, sorbate 20 to 165 to −20 to 230 ° C., monofumarate 20 to 210 to −20 to 210 ° C.): Amorphous
- Glass temperature (Tgs) ([4]; amorphous form generated in situ, sealed DSC thermocycle (Sample B1)): 63 °C

Compound: COc1ccc2c3c([nH]c2c1)CCN(C)CC3.O=C(O)c1ccccc1 [tabernanthalog benzoate salt]
- solubility in FaSSGF [1]: all dissolved except the tabernanthalog benzoate salt
- solubility in FaSSIF [1]: all dissolved except the tabernanthalog benzoate salt
- solubility in FeSSIF [1]: all dissolved except the tabernanthalog benzoate salt
- DVS sorption/desorption isotherm [5]: slightly hygroscopic
- change in chemical purity (trended HPLC) ([6]; 75% RH/40° C., after 10 days): did not decrease significantly
- water uptake / hydrate formation (TGA, DSC) ([6]; 75% RH/40° C., t=5 d and t=10 d): no significant water uptake
- powder diffraction pattern versus input (form stability) ([6]; 75% RH/40° C., t=5 days and t=10 days): consistent with the input
- Tabernanthalog RRT = 1.00 (trended HPLC data, chemical purity) ([6]; Benzoate salt, input before humidity exposure): 98.56
- behaviour at 30 mg/ml in SIF buffers ([7]; FaSSIF, FeSSIF, FaSSGF, 37° C., 24 h): precipitated in all three SIF buffers
- stability of the suspended phase in FaSSIF (XRPD of pellet) [7, 10]: stable and did not disproportionate in FaSSIF
- stability of the suspended phase in FeSSIF (XRPD of pellet) [7, 10]: stable and did not disproportionate in FeSSIF
- decrease in chemical purity of wet pellets in FaSSIF ([7]; over the time points up to 24 h): ca. 1.22 % area
- fate of the suspended phase in FaSSGF (XRPD, 1H NMR) ([7]; up to 24 h, 37° C.): consistent with benzoic acid
